According to BindingDB's records for doi:10.1021/jm00113a023 (Abbott Laboratories, 1991):
*1 amine or outer side, *2 acyl side, *3 side chain or, on linkers, in order; H or OH if unused. Where a SMILES comes first, the peptide text is derived from it. Side-chain parts run from the residue outwards. [ ]: non-standard residue; d: D form. The star is where a group is joined. NH(1-naphthyl) = c1ccc2c(N*)cccc2c1; NHPh(4-CF3) = FC(F)(F)c1ccc(N*)cc1; hCit = NC(=O)NCCCC[C@H](N)C(=O)O; NH(2-Me-phenyl) = Cc1ccccc1N*; 3Abz = Nc1cccc(C(=O)O)c1; Orn = NCCC[C@H](N)C(=O)O; βNA = c1ccc2cc(N*)ccc2c1; Boc = CC(C)(C)OC(=O)*; X1 = Clc1cccc(Cl)c1N*; X7 = Clc1cccc(N*)c1Cl; CO = O=C([*:1])[*:2]; X2 = CC(C)c1ccccc1N*

Target: Gastrin/cholecystokinin type B receptor (Cavia porcellus)
Experiment: Binding affinity for Cholecystokinin type B receptor in guinea pig cortex by using [125I]BH-CCK-8 as radioligand

IC50 [nM]	SMILES
2900	CC(C)(C)OC(=O)N[C@@H](Cc1c[nH]c2ccccc12)C(=O)N[C@@H](CCCC/N=C(\S)Nc1ccccc1Cl)C(=O)N[C@@H](CC(=O)O)C(=O)N[C@@H](Cc1ccccc1)C(N)=O

Target: Gastrin/cholecystokinin type B receptor (Cavia porcellus)
Experiment: as above
Remark: another data set of the same source

SMILES	IC50 [µM]
Cc1ccccc1NC(=O)NCCC[C@H](NC(=O)[C@H](Cc1c[nH]c2ccccc12)NC(=O)OC(C)(C)C)C(=O)N[C@@H](CC(=O)O)C(=O)N[C@@H](Cc1ccccc1)C(N)=O [3-[2-[2-tert-Butoxycarbonylamino-3-(1H-indol-3-yl)-propionylamino]-5-(3-o-tolyl-ureido)-pentanoylamino]-N-(1-carbamoyl-2-phenyl-ethyl)-succinamic acid] (Boc-W[Orn]([CO-NH(2-Me-phenyl)])DF-NH2)	15
CC(C)(C)OC(=O)N[C@@H](Cc1c[nH]c2ccccc12)C(=O)N[C@@H](CCCCNC(=O)Nc1cccc2ccccc12)C(=O)N[C@@H](CC(=O)O)C(=O)N[C@@H](Cc1ccccc1)C(N)=O [3-[2-[2-tert-Butoxycarbonylamino-3-(1H-indol-3-yl)-propionylamino]-6-(3-naphthalen-1-yl-ureido)-hexanoylamino]-N-(1-carbamoyl-2-phenyl-ethyl)-succinamic acid] (Boc-WK([CO-NH(1-naphthyl)])DF-NH2)	11
CC(C)(C)OC(=O)N[C@@H](Cc1c[nH]c2ccccc12)C(=O)N[C@@H](CCCCNC(=O)Nc1ccc2ccccc2c1)C(=O)N[C@@H](CC(=O)O)C(=O)N[C@@H](Cc1ccccc1)C(N)=O [3-[2-[2-tert-Butoxycarbonylamino-3-(1H-indol-3-yl)-propionylamino]-6-(3-naphthalen-2-yl-ureido)-hexanoylamino]-N-(1-carbamoyl-2-phenyl-ethyl)-succinamic acid] (Boc-WK([CO-βNA])DF-NH2)	3.2
CC(C)(C)OC(=O)N[C@@H](Cc1c[nH]c2ccccc12)C(=O)N[C@@H](CCCCNC(=O)Nc1c(Cl)cccc1Cl)C(=O)N[C@@H](CC(=O)O)C(=O)N[C@@H](Cc1ccccc1)C(N)=O [3-{2-[2-tert-Butoxycarbonylamino-3-(1H-indol-3-yl)-propionylamino]-6-[3-(2,6-dichloro-phenyl)-ureido]-hexanoylamino}-N-(1-carbamoyl-2-phenyl-ethyl)-succinamic acid] (Boc-WK([CO-X1])DF-NH2)	7
CC(C)c1ccccc1NC(=O)NCCCC[C@H](NC(=O)[C@H](Cc1c[nH]c2ccccc12)NC(=O)OC(C)(C)C)C(=O)N[C@@H](CC(=O)O)C(=O)N[C@@H](Cc1ccccc1)C(N)=O [3-{2-[2-tert-Butoxycarbonylamino-3-(1H-indol-3-yl)-propionylamino]-6-[3-(2-isopropyl-phenyl)-ureido]-hexanoylamino}-N-(1-carbamoyl-2-phenyl-ethyl)-succinamic acid] (Boc-WK([CO-X2])DF-NH2)	5.7
CC(C)(C)OC(=O)N[C@@H](Cc1c[nH]c2ccccc12)C(=O)N[C@@H](CCCCNC(=O)Nc1ccc(C(F)(F)F)cc1)C(=O)N[C@@H](CC(=O)O)C(=O)N[C@@H](Cc1ccccc1)C(N)=O [3-{2-[2-tert-Butoxycarbonylamino-3-(1H-indol-3-yl)-propionylamino]-6-[3-(4-trifluoromethyl-phenyl)-ureido]-hexanoylamino}-N-(1-carbamoyl-2-phenyl-ethyl)-succinamic acid] (Boc-WK([CO-NHPh(4-CF3)])DF-NH2)	0.85
CC(C)(C)OC(=O)N[C@@H](Cc1c[nH]c2ccccc12)C(=O)N[C@@H](CCCCNC(N)=O)C(=O)N[C@@H](CC(=O)O)C(=O)N[C@@H](Cc1ccccc1)C(N)=O [3-{2-[2-tert-Butoxycarbonylamino-3-(1H-indol-3-yl)-propionylamino]-6-ureido-hexanoylamino}-N-(1-carbamoyl-2-phenyl-ethyl)-succinamic acid] (Boc-W[hCit]DF-NH2)	1

Target: Gastrin/cholecystokinin type B receptor (Cavia porcellus)
Experiment: Binding affinity towards cholecystokinin type B receptor in guinea pig cortex by using [125I]BH-CCK-8 as radioligand

SMILES	IC50 [nM]
COC(=O)c1cccc(NC(=O)NCCCC[C@H](NC(=O)[C@H](Cc2c[nH]c3ccccc23)NC(=O)OC(C)(C)C)C(=O)N[C@@H](CC(=O)O)C(=O)N[C@@H](Cc2ccccc2)C(N)=O)c1 (Boc-WK([CO-3Abz-OMe])DF-NH2)	1400
CC(C)(C)OC(=O)N[C@@H](Cc1c[nH]c2ccccc12)C(=O)N[C@@H](CCCCNC(=O)Nc1cccc(Cl)c1Cl)C(=O)N[C@@H](CC(=O)O)C(=O)N[C@@H](Cc1ccccc1)C(N)=O [3-{2-[2-tert-Butoxycarbonylamino-3-(1H-indol-3-yl)-propionylamino]-6-[3-(2,3-dichloro-phenyl)-ureido]-hexanoylamino}-N-(1-carbamoyl-2-phenyl-ethyl)-succinamic acid] (Boc-WK([CO-X7])DF-NH2)	3000
